Source: US20260009008A1, “SYNTHETIC GENOME EDITING SYSTEM” (Pencil Biosciences Limited, priority 2021, published 2026)
Entries after “also recorded” stand apart in the source; their conditions may differ.

Columns and labels:
[1] = tested on: molecular beacon DNA oligonucleotide (SEQ. ID. No. 60); experiment: Molecular beacon assay for DNA binding and cleavage; assay type: biochemical; details: for emission signal of the fluorophore after a 15-minute incubation: peptide:molecular beacon 500:1, beacon 400 nM, 5 mM MnCl2; for signal / disassembly of the molecular beacon with different metal ions: zinc, manganese, calcium and magnesium chloride
Excerpt: A molecular beacon assay was firstly used to screen each of the peptides for DNA binding and cleavage. For the purpose of these studies, the following DNA oligonucleotide containing 33 nucleotides was employed
where the first six nucleotides at each terminus complement one another forming a 6 bp double stranded DNA stem.
The hairpin structure formed contains a fluorescein molecule as a 5′ modification (6-FAM) and a fluorescent quencher (BHQ1) as a 3′ modification. In the hairpin conformation the fluorescent signal of the molecular beacon is reduced. If a peptide binds or causes cleavage, the hairpin structure will disassemble releasing the fluorophore from the quencher.
The reaction conditions were chosen to reflect conditions that might be expected to strengthen the probability of DNA cleavage by each peptide. As noted above, the peptide designs were inspired by the catalytic active sites of known nucleases. Often the divalent metal of choice for such sites is Mg^2 +. […] In contrast Mn^2 + ions require less coordination sites to facilitate catalysis.
Each reaction was carried out in a reaction buffer of 25 mM Tris-HCl (pH 7.5), 130 mM NaCl, 27μM KCl and 5 mM MnCl2. The molecular beacon was provided at a concentration of 400 nM.
The emission signal of the fluorophore after a 15-minute incubation was measured for each peptide mixed with the molecular beacon at a 500:1 concentration ratio.

plasmid DNA (pBR322) = experiment: Gel plasmid cleavage assay; assay type: biochemical; details: for percentage of nicked plasmid with increasing peptide concentration: after 12 hours
Excerpt: For this reason a further gel plasmid cleavage assay was employed to look for cleavage. Such a gel cleavage assay can differentiate between plasmid that is intact (no cleavage), nicked (ssDNA cleavage) and linearised (dsDNA cleavage) as the three plasmid species will migrate differently on an agarose gel. Intact plasmids have a supercoiled structure and therefore can migrate easily through an agarose gel whereas a ssDNA cleavage on the plasmid will relax this supercoiled structure. This produces a relaxed circle/nicked structure that migrates more slowly through the pores. The dsDNA cleavage of a plasmid produces a linearised plasmid. The linear structure migrates faster than a relaxed circular structure although not as fast as the supercoiled structure.
To optimize the assay, plasmid DNA (pBR322) was mixed with increasing concentrations of the peptide bL or bN, in the presence of Zn^2 + ions. […] The percentage of nicked species increases with greater peptide concentration for both bL and bN. […] An increasing proportion of the plasmid DNA is also observed in the wells of the gel. This DNA can be binding to the peptide causing a complex that is unable to migrate into the gel.

[2] = tested on: extended dsDNA containing the cognate PDS (PDS1); experiment: T7E1 cleavage assay for peptide binding and unwinding of dsDNA target; assay type: biochemical; details: chemically synthesized peptides, PDS1 as cognate PDS
Excerpt: FIG. 4: Cleavage assay results using T7E1 enzyme for binding of the chemically synthesized peptides 1, 2, 3 and 4 (Table 2 in Example 1) to the two 6 nt sequences as above designated PDS1 and PDS2 in a dsDNA target and unwinding of the dsDNA target.
It was reasoned that the phage clones with the selected DNA binding peptides will alter a DNA duplex in a region presenting the cognate PDS, which may result in recognition by DNA nucleases, such as T7E1, commonly used to detect insertions or deletions (indels), which result from the activity of genome editing enzymes, such as Cas9, Cas12a etc. Results of such cleavage assays for destabilized DNA duplex using the extended dsDNA baits as set out in Table 3 below and T7E1 and Surveyor enzymes support this hypothesis (see FIGS. 3a-c), i.e. that binding of the clones presenting the selected fused peptides to dsDNA destabilizes the structure of the DNA duplex in a manner facilitating accessibility for RNA hybridization.
The modified peptides as set out in Table 2 were used to test the sequences for use as DNA-binding domains without M13 phage connection. The modifications included amidation and acetylation at the […] to reflect natural peptide modifications to improve peptide stability and prevent degradation. In the case of Peptides 1 and 3, an additional C-terminal linker (GGS) was provided as noted above. […]

[3] = tested on: PDS1 in an extended dsDNA target; experiment: FRET experiment for binding/unwinding of dsDNA and RNA hybridization; assay type: biochemical; details: FAM-tagged targeting RNA, target DNA tagged with Cy5 or Texas Red
Experimental: FIG. 5: Schematic diagram illustrating a FRET experiment to assess specific binding and unwinding of a dsDNA target by peptide binding to a PDS with RNA hybridization. Results are also shown for binding of Peptide 1 (SEQ. ID. No. 37 as shown in Table 2) to PDS1 having the 5′ to 3′ sequence GAGGTC. The FRET signal was determined upon incubation of the PDS1 containing dsDNA targets with 5′ FAM-RNA with (2, 4) or without peptide (1, 3).
A FRET experiment was carried out to assess the binding and unwinding activity of Peptide 1 with ability to facilitate RNA hybridization when presented with PDS1 in an extended dsDNA target as shown schematically in FIG. 5. It was hypothesized that, upon binding, Peptide 1 will cause some transient unwinding of the dsDNA which will facilitate binding of a targeting RNA. The fluorescent donor, 6-carboxyfluorescein (FAM), was used to tag an appropriate targeting RNA with a 15 bp complementary sequence. Target DNA was tagged with the fluorescent acceptor Cy5 at a 3′ end or Texas Red at a 5′-end.

PDS2 dsDNA bait (ACGGGT) = experiment: ELISA / bio-panning of M13 phage display peptides on biotinylated dsDNA bait PDS2; assay type: binding; details: peptide displayed in the phage library
Excerpt: (§1) As noted above, a commercially available M13 phage display library was employed (New England Biolabs, catalogue #E8111L) which contains around 1×10^912mer peptides fused to the N-terminus of the phage minor coat protein III. Two different 6 nt dsDNA baits were employed with a biotin tag immobilized on a streptavidin-coated 96 well plate as specified in Table 1 below:
(§2) ELISA assays were used to assess binding of peptides of the phage display library to the PDS1 and PDS2 dsDNA baits using an anti-M13 phage antibody labelled with horseradish peroxidase (HRP). After three rounds of bio-panning and sequence analysis of the bound peptides in the library, two 12 mer peptide sequences were selected, chemically synthesised, and modified as set out in Table 2 below.
(§3) • 1. Blocking step of the streptavidin coated 96 well plate (Fisher Scientific, UK) with the Blocking Buffer (0.1 M NaHCO3 (pH 8.6), 5 mg/ml BSA, filter sterilised and stored at 4° C.). • 2. 6 rounds of wash with 1× TBST after discarding the blocking solution. • 3. Precomplexing step (this step can be done at the same time as the blocking step, mentioned above), where the amplified phage library was incubated with each of the dsDNA baits in separate reactions. Each bait includes annealed double stranded DNA oligos (dsDNA), containing one of the PDS sites. […]

[4] = Observation of peptide aggregation / precipitation; assay type: physicochemical
[5] = tested on: nanoluciferase expression cassette with PDS variants in the target region; experiment: Nanoluciferase detection assay for binding ability of the DBD to variant PDSs (ApGet-i); assay type: cell-based; details: EPI300 cells, ApGet-i induced with ATC, nanoluciferase induced with IPTG
Excerpt: As noted above the DBD of sequence SLETWLKHREKDGGS (SEQ. ID. No. 4) was selected on the basis of binding affinity for the dsDNA sequence represented by the 5′ to 3′ sequence 5′GAGGTC3′ (the initially chosen predetermined sequence (PDS) for use in targeting). A further study was undertaken to determine the importance of various nucleotides in this PDS for binding to the same DBD using a nanoluciferase detection assay (Promega). This was on the basis of the prior observation as noted above that expression of ApGet-i in bacteria can suppress transcription of sequences containing target sites for the NAC plus the PDS used for DBD selection.
A nanoluciferase expression cassette was cloned in a second plasmid vector (the Detector plasmid) with the PDS as originally used for DBD selection and variants of that PDS in the target region as shown in FIG. 22.
Bacterial cells were transformed with the Editor plasmid in which ApGet-i expression was under the control of a TetR promoter. The NAC was also expressed by the same plasmid under the control of a constitutive J23119 promoter. The Detector and Editor plasmids were provided with different resistance genes and compatible origins of replication. […] The signal of the nanoluciferase was monitored on the microplate reader and normalized to take account of the degree of bacterial growth in the culture. […]

PDS1 dsDNA bait (GAGGTC) = experiment: ELISA / bio-panning of M13 phage display peptides on biotinylated dsDNA bait PDS1; assay type: binding; details: peptide displayed in the phage library
Excerpt: as §1, §2, §3

Substance: IHIDISI [bN]
- signal with increasing peptide concentration, Zn2+ ions ([1]; Zn2+ ions, peptide 0-800 μM): still increase up to 800μM
- signal without any metal ions ([1]; no metal): high signal
- signal for the disassembly of the molecular beacon with increasing peptide concentration ([1]; peptide 0-800 μM, Mn2+ or Zn2+): general increase
- signal with Mn2+ ions compared with Mg2+ ions ([1]; peptide concentration 400 μM, beacon 400 nM): greater than the bN peptide with Mg^2 + ions
- emission signal of the fluorophore after a 15-minute incubation [1]: relatively high emission signal
- signal / disassembly of the molecular beacon with different metal ions [1]: high increase in the signal regardless of the metal; also recorded: greater with Mn^2 + ions
- cleavage of plasmid (plasmid DNA (pBR322)): some cleavage
- percentage of nicked plasmid with increasing peptide concentration (plasmid DNA (pBR322); Zn2+ ions): increase in the percentage of nicked plasmid

Substance: SLETWLKHREKDGGS [Peptide 1]
- binding and non-duplex structure formation (T7E1 cleavage) [2]: best candidate to be a DNA-binding domain
- RNA-DNA hybridisation reflected by FRET signal [3]: shown to be facilitated; also recorded: increase of FRET signal

Substance: LDLDLKLHL [bL]
- emission signal of the fluorophore after a 15-minute incubation [1]: relatively high emission signal
- signal / disassembly of the molecular beacon with different metal ions [1]: more extensive in the presence of zinc chloride ions
- cleavage of plasmid (plasmid DNA (pBR322)): some cleavage
- amount of nicked plasmid at higher peptide concentrations (greater than 600 μM) (plasmid DNA (pBR322); Zn2+ ions, 12 hours): continues to increase
- percentage of nicked plasmid with increasing peptide concentration (plasmid DNA (pBR322); Zn2+ ions): increase in the percentage of nicked plasmid

Substance: AGDWESWTNGSW [Peptide 4]
- binding to the PDS2 dsDNA bait (PDS2 dsDNA bait (ACGGGT)): binding to the PDS2 dsDNA bait

Substance: IEIDIHI [ibD]
- aggregation / precipitation of peptide [4]: no observable aggregates even at the highest tested concentration

Substance: SLETWLKHREKDGGS (DBD) [DBD of SEQ. ID. No. 4]
- inhibition of luciferase expression with different PDSs ([5]; listed as DBD): effective in inhibiting expression of the luciferase
- inhibition of luciferase expression with different PDSs ([5]; listed as DBD of SEQ. ID no. 4): shown to be effective

Substance: SLETWLKHREKD [Peptide 2]
- binding ability for the PDS1 dsDNA bait (PDS1 dsDNA bait (GAGGTC)): high binding ability
